The test system of experiment [1] is Trichomonas vaginalis. Nature of the experiment: Antiparasitic activity against Trichomonas vaginalis T1 at 100 uM after 24 hrs by hemocytometric analysis. In kind it is functional. Conditions: T1, 24 h.
The subject of experiment [2] is Trichomonas vaginalis. Nature of the experiment: Antiparasitic activity against Trichomonas vaginalis G3 at 100 uM after 24 hrs by hemocytometric analysis. In kind it is functional. Conditions: G3, 24 h.
The test system of experiment [3] is Trichomonas vaginalis. The experiment is described as follows: Antiparasitic activity against Trichomonas vaginalis T1 after 24 hrs by hemocytometric analysis. In kind it is functional, organism-based. Conditions: T1, 24 h.
Experiment [4] deals with Trichomonas vaginalis. Nature of the experiment: Antiparasitic activity against Trichomonas vaginalis G3 after 24 hrs by hemocytometric analysis. The class given is functional. Conditions: G3, 24 h.
Experiment [5] can be described thus: Cytotoxicity against human CFU-GM cells. In kind it is cell-based.
Experiment [6] in a line: Cytotoxicity against human erythroid progenitor cells. The class given is cell-based.

pIC50: −log10 of the molar value. Bounds are passed on as bounds.

As for `O=C(Nc1ccc(Cl)c(Cl)c1)c1ccc(Cl)cc1`, the values for the inhibition at 100 µM in experiment [1] and in experiment [2] were 46% and 28%, respectively.
For `O=Cc1ccc(-c2ccc(Cl)cc2[N+](=O)[O-])o1`, in that order: 59% and 46%.
The like results for `COc1ccc(C(=O)Nc2ccc(Cl)c(Cl)c2)cc1` were, in that order, 22% and 13%.
The like results for `O=C(Nc1ccc(Cl)c(Cl)c1)c1cccc2ccccc12` were, in that order, 49% and 37%.
Turning to `COc1ccc(NC(=O)C2CCCCC2)cc1OC`, the inhibition at 100 µM in experiment [1] is 34%; in experiment [2], 10%.
The like results for `COc1ccc(-c2ccccc2)cc1NC(=O)C1CCCCC1` were, in that order, 36% and 28%.
The like results for `O=C(Nc1ccc(Cl)c(Cl)c1)C12CC3CC(CC(C3)C1)C2` were, in that order, 0% and 19%.
The like results for `O=C(Nc1ccc(Cl)c(Cl)c1)c1cccc([N+](=O)[O-])c1` were, in that order, 22% and 51%.
Regarding `O=C(Nc1ccc(O)cc1)C1CCCCC1`, the values for the inhibition at 100 µM in experiment [1] and in experiment [2] were 25% and 39%, respectively.
For `O=C(Nc1ccc(Cl)c(Cl)c1)c1ccc([N+](=O)[O-])cc1`, the inhibition at 100 µM in experiment [1] is 44%; in experiment [2], 40%.
With `O=C(Nc1ccc(Cl)c(Cl)c1)c1cccc(C(F)(F)F)c1`, the pIC50 is 4.11 in experiment [3] and 4.05 in experiment [4]. In addition, the inhibition at 100 µM was determined as 69% in experiment [1] and 66% in experiment [2].
In the case of `O=C(Nc1ccc(Cl)c(Cl)c1)c1cccc(F)c1`, the inhibition at 100 µM is 29% in experiment [1] and 61% in experiment [2].
For `O=C(Nc1ccc(Cl)c(Cl)c1)c1cccc(Cl)c1`, in that order: 19% and 70%.
`O=C(Nc1ccc(Cl)c(Cl)c1)c1ccc(Cl)cc1Cl`: the inhibition at 100 µM in experiment [1] was determined as 38%; in experiment [2] it was 46%.
On to `O=C(Nc1ccc(Cl)c(Cl)c1)c1ccc(Cl)c(Cl)c1`, for which the inhibition at 100 µM in experiment [1] was determined as 29%; in experiment [2] it was 55%.
The like results for `O=C(Nc1ccc(Cl)c(Cl)c1)C1CCCCC1` were, in that order, 62% and 30%.
The like results for `O=C(Nc1ccc(Cl)c(Cl)c1)c1ccc(-c2ccccc2)cc1` were, in that order, 64% and 24%.
As for `CC(=O)Nc1ccc(O)cc1` [ACETAMINOPHEN], the inhibition at 100 µM in experiment [1] was determined as 17%; in experiment [2], 14%.
The like results for `O=C1C(Cl)=C(Cl)C(=O)C(Cl)=C1Cl` [CHLORANIL] were, in that order, 12% and 40%.
For `O=C1C=CC(=O)c2c(O)cccc21` [JUGLONE], in that order: 39% and 49%.
As for `Cc1ncc([N+](=O)[O-])n1CCO` [METRONIDAZOLE], the pIC50 in experiment [3] was 6.14; in experiment [4] it was 6.11.
As for `CCC(=O)Nc1ccc(Cl)c(Cl)c1` [PROPANIL], the pIC50 in experiment [5] was below 3.30; in experiment [6], 3.52; in experiment [3], 3.92. In addition, the inhibition at 100 µM came out at 29% in experiment [1] and 20% in experiment [2].

Usually inhibition stands for the percentage by which the read-out fell short of the control. Low values mean a response near the control, high ones a response far below the control. A word on the pIC50: it is the IC50 on a negative log10 scale, so that one unit is a factor of ten.

The record behind these values is ChEMBL document CHEMBL1221263, “Preliminary studies of 3,4-dichloroaniline amides as antiparasitic agents: structure-activity analysis of a compound library in vitro against Trichomonas vaginalis” (Bioorg Med Chem Lett, 2010).
